According to patent US20220144823A1, “PYRAZOLOPYRIDINE DERIVATIVES AS INHIBITORS OF PASK” (Galapagos NV, priority 2019, published 2022):

Columns and labels:
human PASK [1] = target: T1, human PASK (Homo sapiens, UniProt Q96RG2); experiment: ADP-Glo kinase assay; assay type: biochemical; conditions: ADPGlo PASK kinase assay, 25 μM ATP, ZIPtide 25 μM
T1 construct: purchased ThermoFisher Scientific PR7013A
Description: The ADP-Glo™ kinase assay is a luminescent technology assay which measures the ADP formed from a kinase reaction. In this specific study, the kinase reactions consisted of the phosphorylation of the ZIPtide peptide substrate by human recombinant PASK. In a second step the kinase reaction is terminated and all the remaining ATP is depleted. In a final step the ADP is converted into ATP and this newly synthesized ATP is measured by using a luciferase/luciferin reaction. The generated light is measured using an Envision plate reader, wherein the luminescent signal obtained positively correlates with the kinase activity.
The test compounds are prepared as a serial dilution of 10 point dose responses with 1/5 dilution steps in 100% DMSO starting from 2 mM highest concentration, diluted 1/20 in water and 1 μL is transferred to the assay plates (PerkinElmer Inc., Cat #6007290).
(§1) 1% DMSO and 10 μM staurosporine final concentrations are used respectively as negative and positive controls.
2 μL enzyme-substrate mixture is added to the assay plates.
The reaction is started by adding 2 μL diluted ATP on the assay plates immediately after addition of the enzyme-substrate mixture to the compound. Plates are centrifuged for a few seconds at 1000 rpm and gently shaken for 2 min followed by an incubation at RT for 120 min.
The reactions are stopped and the unconsumed ATP is depleted by adding 5 μL ADP-Glo Reagent (Promega, Cat #V912B) to the reaction. The plates are centrifuged for a few seconds at 1000 rpm and incubated at RT for 40 min (ATP depletion).
The ADP is converted to ATP and luciferase and luciferin is introduced to detect ATP by adding 10 μL Kinase Detection Reagent (Promega, Cat #V913B+V914B) to the reaction. The plates are centrifuged for a few seconds at 1000 rpm and incubated at RT for 30 min (ADP detection).
Luminescence is measured on an Envision plate reader (PerkinElmer Inc.).
Raw data are generated following the read-out performed on the Envision plate reader, used to calculate percentage inhibition (PIN) values and plotted to generate dose response curves and derive the average half maximal inhibitory concentrations (IC50) reported in Table VIII.

[2] = target: T2, autophosphorylation of PASK at position Thr307 in Hek293 cells overexpressing PASK (Homo sapiens, UniProt Q96RG2); experiment: PASK autophosphorylation ELISA assay; assay type: cell-based; conditions: 24 h, ELISA readout
T2 construct: expressed in transfected cells; host or cells: Hek293
T2 sequence (Q96RG2 with tags, fused parts or gaps): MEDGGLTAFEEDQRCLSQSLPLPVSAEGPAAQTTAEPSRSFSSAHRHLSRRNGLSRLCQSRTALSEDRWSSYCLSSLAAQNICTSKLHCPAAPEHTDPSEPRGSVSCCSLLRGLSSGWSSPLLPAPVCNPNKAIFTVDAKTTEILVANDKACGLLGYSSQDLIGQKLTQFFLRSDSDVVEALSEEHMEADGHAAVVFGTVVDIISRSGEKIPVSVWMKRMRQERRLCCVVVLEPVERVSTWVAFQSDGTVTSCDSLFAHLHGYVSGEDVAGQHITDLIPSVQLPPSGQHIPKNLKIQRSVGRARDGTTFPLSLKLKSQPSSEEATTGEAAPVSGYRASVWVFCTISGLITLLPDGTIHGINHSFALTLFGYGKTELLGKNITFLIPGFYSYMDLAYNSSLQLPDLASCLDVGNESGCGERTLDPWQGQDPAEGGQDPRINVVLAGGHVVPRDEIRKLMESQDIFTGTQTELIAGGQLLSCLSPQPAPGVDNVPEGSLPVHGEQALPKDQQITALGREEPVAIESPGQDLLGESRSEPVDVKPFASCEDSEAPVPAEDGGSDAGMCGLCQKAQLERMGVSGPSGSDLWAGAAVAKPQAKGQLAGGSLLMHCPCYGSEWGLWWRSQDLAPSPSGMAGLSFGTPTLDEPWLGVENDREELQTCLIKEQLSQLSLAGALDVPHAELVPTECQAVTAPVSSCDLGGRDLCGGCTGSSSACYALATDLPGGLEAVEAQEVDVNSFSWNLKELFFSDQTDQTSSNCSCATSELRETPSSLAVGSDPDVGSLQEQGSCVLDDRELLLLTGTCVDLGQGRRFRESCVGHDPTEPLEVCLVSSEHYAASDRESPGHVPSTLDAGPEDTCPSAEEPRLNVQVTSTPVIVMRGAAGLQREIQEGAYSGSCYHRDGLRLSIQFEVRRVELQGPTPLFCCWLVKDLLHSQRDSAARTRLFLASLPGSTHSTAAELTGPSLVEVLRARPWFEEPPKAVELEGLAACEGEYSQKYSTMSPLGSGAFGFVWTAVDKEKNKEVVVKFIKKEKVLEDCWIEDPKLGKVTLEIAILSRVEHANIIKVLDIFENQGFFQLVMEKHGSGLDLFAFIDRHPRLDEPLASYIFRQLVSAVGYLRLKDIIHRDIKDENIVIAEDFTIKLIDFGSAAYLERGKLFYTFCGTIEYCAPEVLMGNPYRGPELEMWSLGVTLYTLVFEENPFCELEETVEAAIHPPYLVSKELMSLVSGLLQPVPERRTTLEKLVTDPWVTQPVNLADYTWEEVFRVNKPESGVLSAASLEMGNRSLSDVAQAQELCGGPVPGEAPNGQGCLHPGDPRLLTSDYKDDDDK
Description: The compounds of the invention are profiled in a cellular assay to determine their capacity to reduce the autophosphorylation levels of PASK at position Thr307 in Hek293 cells overexpressing PASK, using an ELISA-based readout.
At day 1, a 96-well cell assay plate is coated with poly-D-lysine (50 μL/well of a 0.05 mg/mL solution in PBS) and incubated for 1 h at 37° C. The plate is subsequently washed once with PBS and stored dry at RT until further use. Hek293 cells are transfected with a pcDNA3.1-PASK(FL,WT)-FLAG construct (SEQ ID1) and seeded in culture medium (DMEM+10% FBS) in a poly-D-lysine coated 96-well plate (0.3 μL JetPEI DNA transfection reagent (Polyplus-transfection SA, Cat #101-40), 10 ng construct and 90 ng pBluescript, 60000 cells per well). […] The cell plate is incubated overnight at 37° C., 5% CO2.
At day 2, the medium of the assay plate is removed and 100 μL of fresh medium (DMEM+10% FBS) is added to the plate. Cell plate is further incubated overnight at 37° C., 5% CO2. This to allow further expression of PASK protein.
At day 3, the medium is removed and replaced with 100 μL of serum free medium (DMEM). Test compound is added to the plate (8 points concentration curve with 1/3 dilution steps starting from 30 μM final concentration in 0.3% DMSO final). In the positive and negative control wells of the plate, 0.3% DMSO final is added. For each tested condition, duplicates are made for ELISA readout. Cell plate is incubated 24 h at 37° C., 5% CO2.
At day 4, the medium is removed and the plate is washed once with 100 μL/well PBS. Cells are lysed by adding 50 μL/well western blot lysis buffer (20 mM Tris pH 7.5, 150 mM NaCl and 1% Triton) to the plate. The assay plate is stored at −80° C. and thawed to perform the ELISA readout.
At day 1, the ELISA plate is coated with the mouse anti-FLAG antibody (2 μg/mL diluted in PBS, 100 μL/well) and incubated overnight at 4° C.
At day 2, the plate is washed once with 150 μL/well PBS. 200 μL/well blocking buffer (PBS with 3% BSA) is added and the plate is incubated for 4 h at RT. The plate is washed with 150 μL/well high salt washing buffer (20 mM Na2HPO4, 0.5% Triton X-100, 0.1% SDS, 0.1% BSA and 1 M NaCl) followed by one wash with 150 μL/well low salt washing buffer (20 mM Na2HPO4, 0.5% Triton X-100, 0.1% SDS, 0.1% BSA and 150 mM NaCl). Meanwhile, the cell lysate plate is thawed, two wells of the same condition are pooled (2×50 μL) and added to the ELISA plate. The ELISA plate is incubated overnight at 4° C.
At day 3, the ELISA plate is washed twice with 150 μL/well high salt washing buffer followed by two washes with low salt washing buffer. 100 μL/well detection antibody for pPASK (phospho-Akt substrate (RXXS*/T*) (110B7E) rabbit antibody (Cell Signaling Technology, Inc., Cat #9614) 2 μg/mL diluted in PBS with 3% BSA and 1×Halt™ protease and phosphatase inhibitor cocktail (Thermo Fisher Scientific, Inc., Cat #78447)) is added and incubated for 2 h at RT. The plate is washed twice with high and low salt wash buffer (150 μL/well) and 100 μL/well of an HRP antibody (swine anti-rabbit HRP antibody (Agilent Technologies, Inc., Cat #P039901) diluted 1/2000 in PBS with 3% BSA and 1×Halt™ protease and phosphatase inhibitor cocktail) is added to the plate, followed by an incubation for 1 h at RT in the dark (plate sealed with aluminum seal). The plate is washed twice with high and low salt wash buffer (150 μL/well) and 100 μL/well of SuperSignal™ ELISA Pico Chemiluminescent Substrate (Thermo Fisher Scientific, Inc., Cat #37070)(premix part 1 and part 2, 1/1) is added. The plate is incubated for 4 min at RT before measuring luminescence on the Luminoskan™ Ascent (Thermo Fisher Scientific, Inc.) (PMT default voltage; 100 ms integration time). […]

human PASK [3] = target: T1, human PASK; experiment: 33P radioactive kinase assay; assay type: biochemical; conditions: 33P radioactive PASK kinase assay, 10 μM ATP, ZIPtide 1 μM
Description: The principle of the ^33P radioactive kinase assay consists in measuring the incorporated ^33P into the ZIPtide peptide substrate when phosphorylated by human PASK using [^33P]-[…]-ATP and ATP, which correlates with kinase activity.
The test compounds are prepared as a serial dilution of 10 point dose responses with 1/5 dilution steps in 100% DMSO starting from 0.2 or 2 mM highest concentration, diluted 1/20 in water and 5 μL is transferred to the assay plates (Greiner, Cat #651201).
as §1
11 μL of enzyme-substrate mixture is added on the assay plates. The reactions are started by adding 9 μL ATP mixture, consisting of non-labeled and ^33P-labeled ATP, on the assay plates.
The reactions are stopped by adding 25 μL phosphoric acid (150 mM) to the reactions.
The completely terminated kinase reactions are transferred using a harvester on pre-wetted UniFilter-96 plates (UniFilter-96 GF/B, PerkinElmer Inc., Cat #6005177).
After harvesting the kinase reactions, the filter plates are washed 6 times with phosphoric acid (75 mM). The back of the UniFilter-96 plates are sealed and 40 μL MicroScint-20 (PerkinElmer Inc., Cat #6013621) is added to each well. The top of each plate is sealed with TopSeal-A (PerkinElmer Inc., Cat #6050185). Read-out is performed with a TopCount instrument (PerkinElmer Inc.).
Raw data are generated following the read-out performed on the TopCount, used to calculate percentage inhibition (PIN) values and plotted to generate dose response curves and derive the average half maximal inhibitory concentrations (IC50) reported in Table VI.

T1 sequence (Q96RG2 whole entry): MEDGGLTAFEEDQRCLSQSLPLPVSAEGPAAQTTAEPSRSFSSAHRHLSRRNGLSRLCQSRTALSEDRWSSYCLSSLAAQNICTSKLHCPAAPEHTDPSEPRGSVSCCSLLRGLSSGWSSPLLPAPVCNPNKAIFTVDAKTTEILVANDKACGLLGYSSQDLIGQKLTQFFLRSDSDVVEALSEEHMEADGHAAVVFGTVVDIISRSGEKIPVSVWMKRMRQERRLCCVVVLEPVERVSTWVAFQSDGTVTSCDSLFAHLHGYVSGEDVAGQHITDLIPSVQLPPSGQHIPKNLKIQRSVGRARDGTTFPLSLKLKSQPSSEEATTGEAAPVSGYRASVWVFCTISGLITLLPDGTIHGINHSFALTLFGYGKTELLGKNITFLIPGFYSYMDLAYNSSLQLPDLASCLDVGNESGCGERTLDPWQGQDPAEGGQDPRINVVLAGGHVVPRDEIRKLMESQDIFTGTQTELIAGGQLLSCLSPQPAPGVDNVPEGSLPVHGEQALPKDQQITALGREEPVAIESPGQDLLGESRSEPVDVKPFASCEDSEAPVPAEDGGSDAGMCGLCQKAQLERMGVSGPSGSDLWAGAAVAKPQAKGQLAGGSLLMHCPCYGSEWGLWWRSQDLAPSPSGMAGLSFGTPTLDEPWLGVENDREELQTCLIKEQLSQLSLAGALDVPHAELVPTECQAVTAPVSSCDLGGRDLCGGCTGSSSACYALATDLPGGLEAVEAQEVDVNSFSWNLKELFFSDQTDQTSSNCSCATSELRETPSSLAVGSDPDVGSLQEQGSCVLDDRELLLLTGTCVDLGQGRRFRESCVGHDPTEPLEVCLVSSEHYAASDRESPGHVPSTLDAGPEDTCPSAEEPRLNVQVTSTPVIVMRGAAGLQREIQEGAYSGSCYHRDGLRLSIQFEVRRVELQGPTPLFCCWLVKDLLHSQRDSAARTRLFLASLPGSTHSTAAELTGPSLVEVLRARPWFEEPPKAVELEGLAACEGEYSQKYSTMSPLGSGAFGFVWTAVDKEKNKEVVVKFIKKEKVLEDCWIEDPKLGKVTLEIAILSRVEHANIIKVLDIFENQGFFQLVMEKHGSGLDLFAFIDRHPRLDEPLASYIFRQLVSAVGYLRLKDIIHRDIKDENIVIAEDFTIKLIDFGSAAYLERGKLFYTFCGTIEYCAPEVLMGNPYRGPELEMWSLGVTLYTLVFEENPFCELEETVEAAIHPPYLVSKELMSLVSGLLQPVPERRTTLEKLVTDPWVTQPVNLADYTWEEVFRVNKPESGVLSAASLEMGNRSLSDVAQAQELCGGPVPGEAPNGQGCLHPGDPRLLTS

Row | SMILES | IC50 (human PASK [1]) [nM] | IC50 [2] [nM] | IC50 (human PASK [3]) [nM]
1 | COc1nn(-c2ccn3ncc(-c4c(C)nn(C(C)C)c4C)c3c2)cc1C(=O)O [Cpd 66, 1-[3-(1-isopropyl-3,5-dimethyl-pyrazol-4-yl)pyrazolo[1,5-a]pyridin-5-yl]-3-methoxy-pyrazole-4-carboxylic acid] | 0.01 to 10 | > 5000 | 
2 | Cc1nn(C(F)F)c(C)c1-c1cnn2ccc(-n3cc(C(=O)O)cn3)cc12 [Cpd 69, 1-[3-[1-(difluoromethyl)-3,5-dimethyl-pyrazol-4-yl]pyrazolo[1,5-a]pyridin-5-yl]pyrazole-4-carboxylic acid] | 0.01 to 10 | > 5000 | 
3 | COc1nn(-c2ccn3ncc(-c4c(C)nn(C(F)F)c4C)c3c2)cc1C(=O)O [Cpd 71, 1-[3-[1-(difluoromethyl)-3,5-dimethyl-pyrazol-4-yl]pyrazolo[1,5-a]pyridin-5-yl]-3-methoxy-pyrazole-4-carboxylic acid] | 0.01 to 10 | > 5000 | 
4 | Cc1nn(C(F)F)c(C)c1-c1cnn2ccc(-c3ncc(C(=O)O)s3)cc12 [Cpd 50, 2-[3-[1-(difluoromethyl)-3,5-dimethyl-pyrazol-4-yl]pyrazolo[1,5-a]pyridin-5-yl]thiazole-5-carboxylic acid] | 0.01 to 10 | > 5000 | 
5 | Cc1c(-c2cnn3ccc(-n4cc(C(=O)O)cn4)cc23)c(C(F)(F)F)nn1C [Cpd 67, 1-[3-[1,5-dimethyl-3-(trifluoromethyl)pyrazol-4-yl]pyrazolo[1,5-a]pyridin-5-yl]pyrazole-4-carboxylic acid] | 0.01 to 10 | 1000 to 5000 | 
6 | Cc1noc(C)c1-c1cnn2ccc(-c3cc(C(=O)O)c(C4CCOCC4)o3)cc12 [Cpd 44, 5-[3-(3,5-dimethylisoxazol-4-yl)pyrazolo[1,5-a]pyridin-5-yl]-2-tetrahydropyran-4-yl-furan-3-carboxylic acid] | 0.01 to 10 |  | 0.01 to 10

The remaining lines, values ahead:

Row | IC50 (human PASK [1]) [nM] | IC50 [2] [nM] | IC50 (human PASK [3]) [nM] | SMILES
7 | 0.01 to 10 | 1000 to 5000 |  | COc1nc(-c2ccn3ncc(-c4c(C)nn(C(C)C(F)(F)F)c4C)c3c2)sc1C(=O)O (stereo not shown) [Cpd 85, 2-[3-[3,5-dimethyl-1-(2,2,2-trifluoro-1-methyl-ethyl)pyrazol-4-yl]pyrazolo[1,5-a]pyridin-5-yl]-4-methoxy-thiazole-5-carboxylic acid]
8 | 0.01 to 10 | 500 to 1000 |  | Cc1nn(C)c(C)c1-c1cnn2ccc(-c3nc(OCC(F)(F)F)c(C(=O)O)s3)cc12 [Cpd 90, 4-(2,2,2-trifluoroethoxy)-2-[3-(1,3,5-trimethylpyrazol-4-yl)pyrazolo[1,5-a]pyridin-5-yl]thiazole-5-carboxylic acid]
9 | 0.01 to 10 | > 5000 |  | COc1nc(-c2ccn3ncc(-c4c(C)nn(C(C)C)c4C)c3c2)sc1C(=O)O [Cpd 74, 2-[3-(1-isopropyl-3,5-dimethyl-pyrazol-4-yl)pyrazolo[1,5-a]pyridin-5-yl]-4-methoxy-thiazole-5-carboxylic acid]
10 | 0.01 to 10 | > 5000 |  | COc1nc(-c2ccn3ncc(-c4c(C)nn(CC(F)(F)F)c4C)c3c2)sc1C(=O)O [Cpd 77, 2-[3-[3,5-dimethyl-1-(2,2,2-trifluoroethyl)pyrazol-4-yl]pyrazolo[1,5-a]pyridin-5-yl]-4-methoxy-thiazole-5-carboxylic acid]
11 | 0.01 to 10 | 0.1 to 500 |  | Cc1nn(C)c(C)c1-c1cnn2ccc(-c3nc(C4CC4)c(C(=O)O)s3)cc12 [Cpd 86, 4-cyclopropyl-2-[3-(1,3,5-trimethylpyrazol-4-yl)pyrazolo[1,5-a]pyridin-5-yl]thiazole-5-carboxylic acid]
12 | 0.01 to 10 | 1000 to 5000 |  | COc1nc(-c2ccn3ncc(-c4c(C(F)(F)F)nn(C)c4C)c3c2)sc1C(=O)O [Cpd 89, 2-[3-[1,5-dimethyl-3-(trifluoromethyl)pyrazol-4-yl]pyrazolo[1,5-a]pyridin-5-yl]-4-methoxy-thiazole-5-carboxylic acid]
13 | 0.01 to 10 |  | 0.01 to 10 | CCOc1nc(-c2ccn3ncc(-c4c(C)noc4C)c3c2)sc1C(=O)O [Cpd 17, 2-[3-(3,5-dimethylisoxazol-4-yl)pyrazolo[1,5-a]pyridin-5-yl]-4-ethoxy-thiazole-5-carboxylic acid]
14 | 0.01 to 10 |  | 0.01 to 10 | Cc1noc(C)c1-c1cnn2ccc(-c3cc(C(=O)O)co3)cc12 [Cpd 4, 5-[3-(3,5-dimethylisoxazol-4-yl)pyrazolo[1,5-a]pyridin-5-yl]furan-3-carboxylic acid]
